This is an account of results in article PMC9490236, “Accurate de novo design of membrane-traversing macrocycles” (Cell, 2022).

Structures are written as SMILES. Where a SMILES comes first, the peptide text is derived from it. [ ]: non-standard residue; d: D form. NMeF = CN[C@@H](Cc1ccccc1)C(=O)O; dNMeF = CN[C@H](Cc1ccccc1)C(=O)O; NMeL = CN[C@@H](CC(C)C)C(=O)O; dNMeL = CN[C@H](CC(C)C)C(=O)O; NMeNle = CCCC[C@H](NC)C(=O)O; NMeM = CN[C@@H](CCSC)C(=O)O; NMeV = CN[C@H](C(=O)O)C(C)C; NMeA = CN[C@@H](C)C(=O)O; Nle = CCCC[C@H](N)C(=O)O; dNMeA = CN[C@H](C)C(=O)O; Sar = CNCC(=O)O

For the series the following is noted: PAMPA. Background: In PAMPA a lipid-coated filter parts donor from acceptor wells.
Regarding `CC[C@H](C)[C@@H]1NC(=O)[C@H](CCSC)N(C)C(=O)[C@H]2CCCN2C(=O)[C@H](CC(C)C)NC(=O)[C@@H](Cc2ccccc2)NC(=O)[C@@H]2CCCN2C(=O)[C@H]2CCCN2C(=O)[C@H]([C@@H](C)CC)NC(=O)[C@@H](CC(C)C)N(C)C(=O)[C@H](CC(C)C)N(C)C1=O` [Design D10.36, ILE *LEU *DLEU ILE DPRO PRO DPHE LEU DPRO *MET] (cyclo([dF]L[dP][NMeM]I[NMeL][dNMeL]I[dP]P)), the PAMPA_Papp_Avg result is given as “BQL”, the PAMPA_R1 entry is “BQL” and the PAMPA_R3 result was “BQL”.

With `CC[C@@H](C)[C@H]1NC(=O)[C@H](C(C)C)NC(=O)[C@H](Cc2ccccc2)NC(=O)[C@H](C)NC(=O)[C@@H]2CCCN2C(=O)[C@H]2CCCN2C(=O)[C@H]2CCCN2C(=O)[C@H](CC(C)C)N(C)C(=O)[C@@H](C)N(C)C(=O)[C@H](C(C)C)NC1=O` [Design D10.38, VAL *DALA *LEU DPRO DPRO PRO ALA PHE VAL DILE] (cyclo(AFV[dI]V[dNMeA][NMeL][dP][dP]P)), the PAMPA_Papp_Avg entry is recorded as “BQL”, the PAMPA_R1 result was “BQL” and the PAMPA_R3 entry was “BQL”.

`CCCC[C@@H]1NC(=O)[C@H](CC(C)C)NC(=O)[C@@H]2CCCN2C(=O)[C@H]2CCCN2C(=O)[C@@H](C)NC(=O)[C@H]2CCCN2C(=O)[C@@H](CC(C)C)NC(=O)[C@@H](C)N(C)C(=O)[C@H](CC(C)C)N(C)C(=O)[C@@H](C)N(C)C1=O` [Design D10.40, MET *DALA *LEU *DALA DLEU DPRO DALA DPRO PRO LEU] (cyclo(L[Nle][dNMeA][NMeL][dNMeA][dL][dP][dA][dP]P)) returned a PAMPA_Papp_Avg of 7.09E-07, a PAMPA_R1 of 6.40E-07 and a PAMPA_R3 of 6.95E-07.

`CCCC[C@H]1C(=O)N[C@@H]([C@@H](C)CC)C(=O)N2CCC[C@H]2C(=O)N2CCC[C@@H]2C(=O)N[C@H](CC(C)C)C(=O)N[C@@H]([C@@H](C)CC)C(=O)N2CCC[C@@H]2C(=O)N[C@H](Cc2ccccc2)C(=O)N[C@@H](C(C)C)C(=O)N(C)[C@H](CC(C)C)C(=O)N1C` [Design D10.44, VAL *DLEU *MET ILE PRO DPRO DLEU ILE DPRO DPHE] (cyclo(IP[dP][dL]I[dP][dF]V[dNMeL][NMeNle])): the PAMPA_Papp_Avg entry is recorded as “BQL”, the PAMPA_R1 result is reported as “BQL” and the PAMPA_R3 entry is recorded as “BQL”.

With `CC[C@H](C)[C@@H]1NC(=O)[C@H](Cc2ccccc2)N(C)C(=O)[C@H]2CCCN2C(=O)[C@@H](CC(C)C)N(C)C(=O)[C@@H](Cc2ccccc2)NC(=O)[C@H](C(C)C)NC(=O)[C@H](CC(C)C)NC(=O)[C@H]2CCCN2C(=O)[C@H](CC(C)C)NC(=O)[C@@H]2CCCN2C1=O` [Design D10.50, LEU VAL DPHE *DLEU DPRO *PHE ILE PRO LEU DPRO] (cyclo(IPL[dP]LV[dF][dNMeL][dP][NMeF])), the PAMPA_Papp_Avg came to 6.28E-07, the PAMPA_R1 is 8.97E-07 and the PAMPA_R3 was 6.88E-07.

On to `CC[C@H](C)[C@@H]1NC(=O)[C@@H](CC(C)C)NC(=O)[C@H](CC(C)C)NC(=O)[C@H]2CCCN2C(=O)[C@@H]2CCCN2C(=O)[C@H](C)NC(=O)[C@H](Cc2ccccc2)N(C)C(=O)[C@@H](C(C)C)NC(=O)[C@H](Cc2ccccc2)N(C)C(=O)[C@@H](Cc2ccccc2)N(C)C1=O` [Design D10.51, ILE *DPHE *PHE DVAL *PHE ALA PRO DPRO LEU DLEU] (cyclo(AP[dP]L[dL]I[dNMeF][NMeF][dV][NMeF])), for which the PAMPA_Papp_Avg entry is “BQL”, the PAMPA_R1 entry is listed as “BQL” and the PAMPA_R3 entry is listed as “BQL”.

Regarding `CC[C@H](C)[C@@H]1NC(=O)[C@@H]2CCCN2C(=O)[C@H](C)NC(=O)[C@@H](Cc2ccccc2)N(C)C(=O)[C@H](C)NC(=O)[C@@H]2CCCN2C(=O)[C@@H](Cc2ccccc2)N(C)C(=O)[C@H](Cc2ccccc2)N(C)C(=O)[C@H](CC(C)C)N(C)C(=O)[C@@H](C(C)C)NC1=O` [Design D10.52, ILE DVAL *LEU *PHE *DPHE PRO ALA *DPHE ALA PRO] (cyclo(API[dV][NMeL][NMeF][dNMeF]PA[dNMeF])), the PAMPA_Papp_Avg result is on record as “BQL”, the PAMPA_R1 entry is “BQL” and the PAMPA_R3 entry is given as “BQL”.

Regarding `CC(C)C[C@@H]1C(=O)N[C@H](C(C)C)C(=O)N[C@@H](C)C(=O)N2CCC[C@H]2C(=O)N2CCC[C@H]2C(=O)N[C@@H](C)C(=O)N2CCC[C@@H]2C(=O)N[C@@H](Cc2ccccc2)C(=O)N2CCC[C@H]2C(=O)N[C@@H](C(C)C)C(=O)N1C` [Design D10.53, ALA DPRO PHE PRO VAL *DLEU DVAL ALA PRO PRO] (cyclo(APPA[dP]FPV[dNMeL][dV])), the PAMPA_Papp_Avg entry was “BQL”, the PAMPA_R1 result is “BQL” and the PAMPA_R3 result is recorded as “BQL”.

Take `CC(C)C[C@@H]1NC(=O)[C@@H](Cc2ccccc2)NC(=O)[C@@H]2CCCN2C(=O)[C@H]2CCCN2C(=O)[C@@H]2CCCN2C(=O)[C@H](C)NC(=O)[C@H](Cc2ccccc2)N(C)C(=O)[C@H]2CCCN2C(=O)[C@@H](CC(C)C)NC(=O)[C@@H](C(C)C)NC1=O` [Design D10.54, DVAL DLEU DPRO *PHE ALA PRO DPRO PRO DPHE LEU] (cyclo([dF]L[dV][dL][dP][NMeF]AP[dP]P)): the PAMPA_Papp_Avg result was “BQL”, the PAMPA_R1 result is recorded as “BQL” and the PAMPA_R3 result is listed as “BQL”.

For `CC[C@H](C)[C@@H]1NC(=O)[C@H](C)NC(=O)[C@@H](CC(C)C)NC(=O)[C@H](CC(C)C)N(C)C(=O)[C@H](CC(C)C)NC(=O)[C@@H](Cc2ccccc2)N(C)C(=O)[C@@H]2CCCN2C(=O)[C@H]([C@@H](C)CC)NC(=O)[C@H](Cc2ccccc2)N(C)C(=O)[C@@H](CC(C)C)NC1=O` [Design D10.55, DLEU ALA ILE DLEU *PHE ILE PRO *DPHE LEU *LEU] (cyclo(AI[dL][NMeF]IP[dNMeF]L[NMeL][dL])), the PAMPA_Papp_Avg result was “BQL”, the PAMPA_R1 result is “BQL” and the PAMPA_R3 result is “BQL”.

Consider `CC(C)C[C@H]1C(=O)N[C@@H](C)C(=O)N(C)CC(=O)N2CCC[C@@H]2C(=O)N(C)[C@@H](C(C)C)C(=O)N[C@@H](C(C)C)C(=O)N2CCC[C@H]2C(=O)N2CCC[C@@H]2C(=O)N[C@@H](C)C(=O)N[C@H](C(C)C)C(=O)N1C` [Design D10.66, PRO DPRO ALA DVAL *LEU ALA *GLY DPRO *VAL VAL] (cyclo(A[Sar][dP][NMeV]VP[dP]A[dV][NMeL])), for which the PAMPA_Papp_Avg entry was “BQL”, the PAMPA_R1 entry is on record as “BQL” and the PAMPA_R3 entry is “BQL”.

`CC(C)C[C@@H]1NC(=O)[C@H](CC(C)C)NC(=O)[C@H](C(C)C)NC(=O)[C@H](C)NC(=O)[C@@H]2CCCN2C(=O)[C@H]2CCCN2C(=O)[C@@H]2CCCN2C(=O)[C@H](C)N(C)C(=O)[C@@H](CC(C)C)N(C)C(=O)[C@@H]2CCCN2C(=O)[C@H](Cc2ccccc2)NC1=O` [Design D11.7, PHE PRO *DLEU *ALA PRO DPRO PRO ALA VAL LEU LEU] (cyclo(AVLLFP[dNMeL][NMeA]P[dP]P)): the PAMPA_Papp_Avg entry was “BQL”, the PAMPA_R1 result was “BQL” and the PAMPA_R3 result is listed as “BQL”.

`CC[C@H](C)[C@@H]1NC(=O)[C@H]2CCCN2C(=O)[C@H](C(C)C)NC(=O)[C@H](C(C)C)N(C)C(=O)[C@@H](C(C)C)NC(=O)[C@H](C(C)C)NC(=O)[C@H]2CCCN2C(=O)[C@@H]2CCCN2C(=O)[C@H](C)NC(=O)[C@@H](CC(C)C)N(C)C(=O)[C@H]2CCCN2C1=O` [Design D11.8, PRO DPRO VAL DVAL *VAL VAL DPRO ILE DPRO *DLEU ALA] (cyclo(AP[dP]V[dV][NMeV]V[dP]I[dP][dNMeL])): the PAMPA_Papp_Avg result was “BQL”, the PAMPA_R1 entry is “BQL” and the PAMPA_R3 result was “BQL”.

Turning to `CC(C)C[C@@H]1NC(=O)[C@@H](C(C)C)NC(=O)[C@@H]2CCCN2C(=O)[C@H]2CCCN2C(=O)[C@H](Cc2ccccc2)NC(=O)[C@@H](C)NC(=O)[C@@H](CC(C)C)N(C)C(=O)[C@@H]2CCCN2C(=O)[C@H]2CCCN2C(=O)[C@@H](C(C)C)NC(=O)[C@@H](C)N(C)C1=O` [Design D11.12, DVAL DPRO PRO *DLEU DALA PHE DPRO PRO DVAL LEU *DALA] (cyclo([dNMeL][dA]F[dP]P[dV]L[dNMeA][dV][dP]P)), the PAMPA_Papp_Avg entry is “BQL”, the PAMPA_R1 result is “BQL” and the PAMPA_R3 result is on record as “BQL”.

On to `CC[C@H](C)[C@@H]1NC(=O)[C@H](CC(C)C)NC(=O)[C@H](Cc2ccccc2)NC(=O)[C@@H](C)NC(=O)[C@H]2CCCN2C(=O)[C@@H]2CCCN2C(=O)[C@H]2CCCN2C(=O)[C@H](CC(C)C)NC(=O)[C@@H](C(C)C)NC(=O)[C@@H](CC(C)C)N(C)C(=O)[C@@H]2CCCN2C1=O` [Design D11.17, PRO *DLEU DVAL LEU DPRO PRO DPRO DALA PHE LEU ILE] (cyclo([dP][dA]FLIP[dNMeL][dV]L[dP]P)), for which the PAMPA_Papp_Avg result is listed as “BQL”, the PAMPA_R1 entry is “BQL” and the PAMPA_R3 entry is listed as “BQL”.

Consider `CC[C@@H](C)[C@H]1NC(=O)[C@@H](C)NC(=O)[C@@H](CC(C)C)NC(=O)[C@@H](Cc2ccccc2)NC(=O)[C@@H]2CCCN2C(=O)[C@@H]2CCCN2C(=O)[C@@H](CC(C)C)N(C)C(=O)[C@@H](C)N(C)C(=O)[C@@H](CC(C)C)NC(=O)[C@H](CC(C)C)NC(=O)[C@@H](Cc2ccccc2)NC1=O` [Design D11.18, DALA DILE DPHE LEU DLEU *DALA *DLEU PRO PRO DPHE DLEU] (cyclo(L[dL][dNMeA][dNMeL]PP[dF][dL][dA][dI][dF])), for which the PAMPA_Papp_Avg result is “BQL”, the PAMPA_R1 entry was “BQL” and the PAMPA_R3 result was “BQL”.

With `CC[C@@H](C)[C@H]1NC(=O)[C@@H](CC(C)C)NC(=O)[C@@H](CC(C)C)NC(=O)[C@@H](C)NC(=O)[C@@H](CC(C)C)NC(=O)[C@H]2CCCN2C(=O)[C@@H]2CCCN2C(=O)[C@H]2CCCN2C(=O)[C@@H](C)NC(=O)[C@@H](CC(C)C)N(C)C(=O)[C@H]2CCCN2C1=O` [Design D11.19, DILE DPRO *DLEU DALA DPRO PRO DPRO DLEU DALA DLEU DLEU] (cyclo([dP][dL][dA][dL][dL][dI][dP][dNMeL][dA][dP]P)), the PAMPA_Papp_Avg entry is “BQL”, the PAMPA_R1 entry is “BQL” and the PAMPA_R3 entry was “BQL”.
